Legend:
Format in all cases: in vivo
[1] = system: Lolium multiflorum Lam. (Italian ryegrass, LOLMU); assay: Weight of the weed in wheat crop (Example 2); details: for % Decrease in weight of weed: versus untreated control
Experimental: (§1) Experiments were conducted to assess the efficacy of herbicidal combination comprising napropamide/napropamide-M to control a weed, Lolium multiflorum Lam. (Italian ryegrass, LOLMU) in wheat crop. The weed is resistant to control by conventional herbicides. Percentage efficacy of the herbicidal combination was determined over time (measured as days after anthesis, [DAA]) following application of the herbicidal combination comprising napropamide/napropamide-M and propisochlor. The herbicide combination was applied by spraying to LOLMU at pre-emergence stage.
Further, the effect of the herbicidal combination was also assessed for the weight of the weed in wheat crop and the results has been disclosed in Table 3.

LOLMU (S-strain) = assay: Efficacy of pre-emergence spray against resistant weed LOLMU (Example 1); details: sprayed at pre-emergence stage
Experimental: Experiments were conducted to assess the efficacy of herbicidal combination comprising napropamide/napropamide-M to control a weed (LOLMU) which is resistant to control by conventional herbicides. Percentage efficacy of the herbicidal combination was determined over time (measured as days after anthesis, [DAA]) following application the of herbicidal combination comprising napropamide/napropamide-M and prosulfocarb. The herbicidal combination was applied by spraying to LOLMU (S-strain) at pre-emergence stage.

[2] = system: Lolium multiflorum Lam. (Italian ryegrass, LOLMU); assay: Weed control of LOLMU in wheat crop, pre-emergence spray (Example 2); details: 450 g/L
Experimental: as §1

CCc1cccc(C)c1N(COC(C)C)C(=O)CCl [Propisochlor, propisochlor]
Weight of weed (g/m^2) ([1]; 720 g/L, dose 800 g/Ha): 760 g/m^2
% Decrease in weight of weed ([1]; 720 g/L, dose 800 g/Ha): 74%

CCN(CC)C(=O)[C@@H](C)Oc1cccc2ccccc12 [Napropamide-M 450 g/L, Napropamide-M]
Control in weed (%) (LOLMU (S-strain); dose 315 g/Ha): 69.80%

CCCN(CCC)C(=O)SCc1ccccc1 [Prosulfocarb 800 g/L, prosulfocarb]
Control in weed (%) (LOLMU (S-strain); dose 2400 g/Ha): 68.14%
Control in weed (%) (LOLMU (S-strain); dose 5000 g/Ha): 78.02%

CCN(CC)C(=O)C(C)Oc1cccc2ccccc12 (stereo not drawn) [Napropamid, N,N-diethyl-2-(α-naphthoxy) propionamide]
Weight of weed (g/m^2) ([1]; 450 g/L, dose 750 g/Ha): 2.11 g/m^2
% Decrease in weight of weed ([1]; 450 g/L, dose 750 g/Ha): 27%
Weight of weed (g/m^2) ([1]; 450 g/L, dose 1000 g/Ha): 1.86 g/m^2
% Decrease in weight of weed ([1]; 450 g/L, dose 1000 g/Ha): 36%
Weed control (%) 15 DAA ([2]; dose 750 g/Ha): 65%
Weed control (%) 25 DAA ([2]; dose 750 g/Ha): 83%
Weed control (%) 45 DAA ([2]; dose 750 g/Ha): 79%
Weed control (%) 15 DAA ([2]; dose 1000 g/Ha): 72%
Weed control (%) 25 DAA ([2]; dose 1000 g/Ha): 86%
Weed control (%) 45 DAA ([2]; dose 1000 g/Ha): 82%
